US8802711B2, “TRPV1 antagonists” (AbbVie Inc., priority 2011, dated 2014)
Where two headings read alike, the source gives them in different places.

Key:
[1] = target: T1, human TRPV1 receptor (hTRPV1) (Homo sapiens (Human), UniProt Q8NER1); experiment: Acid activation assay (pH 5.0, FLIPR intracellular Ca2+); type: cell-based; details: 37.5 μM antagonist, percentage of the maximal pH 5.0-induced response remaining, read-out: hTRPV1 H+ (max % remain)
Summary of the method: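 Antagonism of acid-evoked Ca2+ influx measured by FLIPR Calcium-4 fluorescence after a pH 5.0 DPBS/MES stimulus, with compounds preincubated 3 min over 12 half-log concentrations. Cells: stable hTRPV1-expressing 1321N1 line, dye-loaded 90–120 min in the dark at 25 °C.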

Sprague-Dawley rats = experiment: Rat tail immersion assay (noxious thermosensation); type: in vivo; details: rat, 100 μmol/kg oral, one hour post dosing, 55° C. water bath, relative to vehicle; for change in vivo at 100 µmol/kg: 1 h, read-out: % Increase in tail withdrawal latency
Protocol: Adult male Sprague-Dawley rats (250-300 g body weight, Charles River Laboratories, Portage, Mich.) were used. Animal handling and experimental protocols were approved by the Institutional Animal Care and Use Committee (IACUC) at Abbott Laboratories. For all surgical procedures, animals were maintained under isoflurane anesthesia (4-5% to induce, 1-3% to maintain), and the incision sites were sterilized using a 10% povidone-iodine solution prior to and after surgeries.
Compounds were tested for their effects on noxious thermosensation using the tail immersion assay. Testing was performed one hour following oral administration of 100 μmol/kg of the compound in 10% ethanol/20% Tween-80/70% PEG-400 (2 mL/kg). Morphine (6 mg/kg) was administered interperitoneally (i.p.) using saline (2 mL/kg) as the vehicle. For testing, a circulating water bath was heated to 55° C. Thirty to sixty minutes post dosing, the rats were handled for a few seconds to calm them down and then cupped with their back against the tester's hand at a slight angle with head facing away from the tester. With rat in one hand and a 0.01 second stopwatch in the other hand, the tail was quickly immersed 6-8 cm in the water bath or to a distance leaving 2-3 cm of tail out of water. The timer was started simultaneously. When the rat flinched or attempted withdrawal, timer was immediately stopped and the rat's tail was quickly removed from water bath. This response latency (in seconds) was recorded. Process was repeated 3 times with 3-4 minutes between readings and the average response latency was calculated.
For a given example, a percent increase in the average response latency (in seconds) for tail withdrawal relative to a vehicle control was determined. % increase=[(tc−tv)/tv]×100%
tc=response latency (in seconds) with oral dosing of compounds
tv=response latency (in seconds) with oral dosing of vehicle
The % increases in tail withdrawal latency relative to vehicle control are divided into the following categories: […]

[2] = target: T1, human TRPV1 receptor (hTRPV1); experiment: Capsaicin activation assay (FLIPR intracellular Ca2+); type: cell-based; details: inhibition of capsaicin-induced intracellular Ca2+ increase, read-out: hTRPV1 cap IC50
Summary of the method: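 Antagonism measured as [Ca2+]i fluorescence on FLIPR Tetra: compounds given 3 min ahead of capsaicin, added as 200 nM (4×), to dye-loaded hTRPV1-HEK293 cells. Response taken as baseline-subtracted peak, normalized to the 50 nM capsaicin control; 12-point one-third-log titrations.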

[3] = Table 1, HEK293 cells expressing human TRPV1

T1 sequence (Q8NER1 whole entry): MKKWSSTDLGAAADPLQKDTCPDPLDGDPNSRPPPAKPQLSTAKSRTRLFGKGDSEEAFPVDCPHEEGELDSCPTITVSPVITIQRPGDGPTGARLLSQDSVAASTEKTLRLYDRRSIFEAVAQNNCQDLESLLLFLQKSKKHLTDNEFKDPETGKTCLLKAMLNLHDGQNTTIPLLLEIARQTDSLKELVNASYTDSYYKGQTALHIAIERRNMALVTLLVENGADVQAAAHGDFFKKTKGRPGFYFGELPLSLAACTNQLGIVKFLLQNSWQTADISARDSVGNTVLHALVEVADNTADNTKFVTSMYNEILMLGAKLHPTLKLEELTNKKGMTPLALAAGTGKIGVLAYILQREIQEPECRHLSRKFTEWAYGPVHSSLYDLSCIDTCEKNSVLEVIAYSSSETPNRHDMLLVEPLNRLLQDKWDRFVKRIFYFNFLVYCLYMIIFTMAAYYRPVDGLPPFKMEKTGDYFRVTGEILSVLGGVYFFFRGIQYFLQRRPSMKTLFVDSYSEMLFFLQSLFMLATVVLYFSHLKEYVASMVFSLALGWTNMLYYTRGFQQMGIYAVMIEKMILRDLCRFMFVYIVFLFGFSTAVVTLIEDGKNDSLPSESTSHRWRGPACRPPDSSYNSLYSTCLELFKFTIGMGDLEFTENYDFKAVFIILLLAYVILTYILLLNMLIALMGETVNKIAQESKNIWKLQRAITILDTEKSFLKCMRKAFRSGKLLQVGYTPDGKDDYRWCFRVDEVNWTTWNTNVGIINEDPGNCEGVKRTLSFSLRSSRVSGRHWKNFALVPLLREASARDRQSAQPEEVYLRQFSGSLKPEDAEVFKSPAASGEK

SMILES	remaining activity at 37.5 µM ([1]; Table 1) [%]	remaining activity at 37.5 µM ([1]; Table 2) [%]	% Increase in tail withdrawal latency (Sprague-Dawley rats)	IC50 [2, 3] [nM]	IC50 ([2]; Table 2) [nM]	change in vivo at 100 µmol/kg (Sprague-Dawley rats) [%]
Cc1cc2c(NC(=O)N[C@@H]3CC[C@@H](c4ccccc4)C3)c(F)ccc2cn1 [Example 20, 1-(6-fluoro-3-methylisoquinolin-5-yl)-3-[(1R,3R)-3-phenylcyclopentyl]urea]	32	32	−	5	5	
CN1C(=O)CCc2c(NC(=O)N[C@H]3CC[C@H](c4ccccc4)C3)cccc21 [Example 96, 1-(1-methyl-2-oxo-1,2,3,4-tetrahydroquinolin-5-yl)-3-[(1S,3S)-3-phenylcyclopentyl]urea]	66	66		63	63	10 to 25
O=C(Nc1cccc2[nH]ncc12)N[C@@H]1CC[C@@H](c2ccccc2F)C1 [Example 66, 1-[(1R,3R)-3-(2-fluorophenyl)cyclopentyl]-3-(1H-indazol-4-yl)urea]	29	29		8.2	8	> 25
O=C(Nc1cccc2c1C[C@@H](O)C2)N[C@@H]1CC[C@H](c2ccccc2)C1 [Example 2, 1-[(2S)-2-hydroxy-2,3-dihydro-1H-inden-4-yl]-3-[(1R,3S)-3-phenylcyclopentyl]urea]	40	40	−	29	29	
Cc1cc2c(NC(=O)N[C@H]3CC[C@@H](c4ccccc4)C3)c(F)ccc2cn1 [Example 27, 1-(6-fluoro-3-methylisoquinolin-5-yl)-3-[(1S,3R)-3-phenylcyclopentyl]urea]	60	60	−	7	6	
O=C(Nc1cccc2[nH]ncc12)N[C@@H]1CC[C@H](c2ccccc2)C1 [Example 7, 1-(1H-indazol-4-yl)-3-[(1R,3S)-3-phenylcyclopentyl]urea]	32	32	−	9	9	
O=C(Nc1cccc2[nH]ncc12)N[C@@H]1C=C[C@H](c2ccccc2)C1 [Example 48, 1-(1H-indazol-4-yl)-3-[(1S,4R)-4-phenylcyclopent-2-en-1-yl]urea]	49	49	−	42	42	
Cn1c(=O)ccc2c(NC(=O)N[C@@H]3CC[C@@H](c4cccc(F)c4)C3)cccc21 [Example 78, 1-[(1R,3R)-3-(3-fluorophenyl)cyclopentyl]-3-(1-methyl-2-oxo-1,2-dihydroquinolin-5-yl)urea]	78	78		6.5	7	10 to 25
